In brackets after ≈: the same amount, converted by molar mass.
Assays:
[1] = MTT cytotoxicity (cell viability) assay; assay type: cell-based, human; settings: human, HepG2 cell line, 48 h, Figure 6
Experimental: (§1) Cells were treated with extracts/compound dissolved in DMSO with a final DMSO concentration of 0.05%. DMSO treated cells were used as control in all the experiments. Cell viability was determined by MTT assay as described by us previously. Briefly, HepG2 cells were treated with different concentrations of compounds for 48 h. […] Subsequently, 150 μL DMSO was added to dissolve formazan crystals and absorbance was measured at 490 nm in a microplate reader (Thermo Scientific, Waltham, MA, USA). The percentage of cell viability was calculated.

[2] = Antioxidant free radical scavenging activity using DPPH; assay type: biochemical; settings: Figure 7 and text
Experimental: The potential of synthesized compounds to scavenge the free radicals were assessed by using diphenylpicrylhydrazyl (DPPH) as free radical [48].
These stock solutions were then subjected to prepare their dilutions up to 250 µg, 200 µg, 150 µg, 100 µg, 50 µg and 25 µg respectively. DPPH solution of 4% was prepared by mixing 0.004 g of DPPH in 100 ml methanol (commercial grade). Ascorbic acid was used as control and its solution was prepared by mixing 0.0017612 g into 100 ml of water having 100 µg concentration.
In test tubes 1 mL of sample from each diluted solution and 2 mL of DPPH solution was added. In the same way, 1 mL of the ascorbic acid was added along with 2 ml of DPPH as control and allowed to stand overnight.

HepG2 cells = test: MTT cytotoxicity (cell viability) assay; assay type: cell-based, human; settings: Homo sapiens, HepG2, read-out: IC50 as anti-cancer agents
Experimental: as §1

| melting point | Compound | IC50 at 48 h [1] | other results |
| --- | --- | --- | --- |
| 210 to 213 °C | CCOC(=O)C1=C(C)NC(=O)NC1c1cccc(F)c1 (stereo not drawn) [Compound 5b, ethyl 4-(3-fluorophenyl)-6-methyl-2oxo-1,2,3,4-tetrahydropyrimidine-5-carboxylate] |  | IC50 at 48 h ([1]; HepG2 cells): 11.3 µg/mL (≈ 40.5 µM) |
|  | CCOC(=O)C1=C(C)NC(=O)NC1c1ccc(F)cc1 (stereo not drawn) [Compound 5c, ethyl 4-(4-fluorophenyl)-6-methyl-2oxo-1,2,3,4-tetrahydropyrimidine-5-carboxylate] | 7.29 µg/mL (≈ 26.2 µM) | IC50 as anti-oxidant agents [2]: 6.261 µM |
|  | CCOC(=O)C1=C(C)NC(=S)NC1c1ccccc1F (stereo not drawn) [Compound 5d, ethyl 4-(2-fluorophenyl)-6-methyl-2-thioxo-1,2,3,4-tetrahydropyrimidine-5-carboxylate] | 25.5 µg/mL (≈ 86.7 µM) |  |
|  | CCOC(=O)C1=C(C)NC(=S)NC1c1cccc(F)c1 (stereo not drawn) [Compound 5e, ethyl 4-(3-fluorophenyl)-6-methyl-2-thioxo-1,2,3,4-tetrahydropyrimidine-5-carboxylate] | 5.35 µg/mL (≈ 18.2 µM) | IC50 (HepG2 cells): 5.35 µg/mL (≈ 18.2 µM) |
| 233 to 235 °C | CCOC(=O)C1=C(C)NC(=S)NC1c1ccc(F)cc1 (stereo not drawn) [Compound 5f, ethyl 4-(4-fluorophenyl)-6-methyl-2thioxo-1,2,3,4-tetrahydropyrimidine-5-carboxylate] |  | IC50 at 48 h ([1]; HepG2 cells): 18.7 µg/mL (≈ 63.5 µM) |
|  | CCOC(=O)C1=C(C)NC(=S)NC1c1cccc(Cl)c1 (stereo not drawn) [Compound 5h, ethyl 4-(3-chlorophenyl)-6-methyl-2thioxo-1,2,3,4-tetrahydropyrimidine-5-carboxylate] | 13 µg/mL (≈ 41.7 µM) |  |

| Compound | melting point | IC50 at 48 h [1] | other results |
| --- | --- | --- | --- |
| CCOC(=O)C1=C(C)NC(=O)NC1c1ccccc1F (stereo not drawn) [Compound 5a, 4-(2-fluorophenyl)-6-methyl-2oxo-1,2,3,4-tetrahydropyrimidine-5-carboxylate] | 230 to 233 °C | 16 µg/mL (≈ 57.5 µM) |  |

Reference: article PMC8348070, “Structure-Based Designing, Solvent Less Synthesis of 1,2,3,4-Tetrahydropyrimidine-5-carboxylate Derivatives: A Combined In Vitro and In Silico Screening Approach” (Molecules, 2021)
